Experimental data as given in article PMC12152147, “DDB1 engagement defines the selectivity of S656 analogs for cyclin K degradation over CDK inhibition” (EMBO Reports, 2025).
Where two headings read alike, the source gives them in different places.

What was measured:
[1] = system: OCI-AML5 cells; assay: Dose-response proliferative assay in OCI-AML5 (4 days, CellTiterGlo); type: cell-based, H. sapiens; details: read-out: IC50 in AML5
Procedure: Cell lines were purchased from the ATCC or donated from collaborators. OCI-AML5 cell line was cultured in αMEM, 10% heat-inactivated FBS supplemented with 10 ng/mL GM-CSF, OCI-AML1, U2OS and HEK293T cell lines in DMEM, 10% heat-inactivated FBS. Cells were maintained at 37 °C in 5% CO2 atmosphere.
Dose-response assays in primary AML specimens were performed as in chemical screen (see above) with the exception that compounds were tested in serial dilution (8 dilutions, 1:4, 10 μM down to 0.5 nM). Dose-response assays in OCI-AML5 cell line were conducted similarly with the following modifications: 300 cells per well were seeded in 50 μL of cell line media and cell viability was evaluated after 4 days in culture.

[2] = system: cyclin KeGFP; assay: Cyclin KeGFP reporter system (eGFP/mCherry MFI by flow cytometry);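 also: 10 μM compound for 3 h relative to DMSO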; type: cell-based, H. sapiens; details: cyclin K-eGFP reporter
Procedure: We used the cyclin KeGFP reporter system previously described (Słabicki et al, [2020]). Lentiviral vector (Addgene plasmid #169930) was used to infect OCI-AML5 at a MOI of 5 and were selected with puromycin. Cells were seeded in methylcellulose and let grown as colonies for 10 days. Colonies were isolated, expanded and selected based on cyclin KeGFP fluorescence in presence and absence of cyclin K degrader molecules. Selected G7 clone was used for all reported experiments. Fluorescent signal of cyclin KeGFP and mCherry were quantified by flow cytometry (BD LSRII) in each condition and the geometric mean fluorescence intensity (MFI) were calculated using FlowJo (BD Biosciences). The ratio of eGFP to mCherry was normalized to DMSO-treated cells.

[3] = molecular target: T1, CDK1 (Homo sapiens, UniProt P06493); assay: CDK1 in vitro kinase activity, single concentration 1 μM; type: biochemical; details: single concentration 1 μM
T1 construct: purchased BPS Bioscience 79597
T1 sequence (P06493 whole entry): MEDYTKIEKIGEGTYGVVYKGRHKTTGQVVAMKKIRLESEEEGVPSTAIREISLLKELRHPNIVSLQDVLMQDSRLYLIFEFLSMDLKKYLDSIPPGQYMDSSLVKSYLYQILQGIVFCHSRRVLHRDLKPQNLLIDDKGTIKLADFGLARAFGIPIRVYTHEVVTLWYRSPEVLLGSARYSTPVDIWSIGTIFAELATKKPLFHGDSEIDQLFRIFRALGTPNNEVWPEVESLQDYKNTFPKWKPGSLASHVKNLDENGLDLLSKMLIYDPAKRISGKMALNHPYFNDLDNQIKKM
T1 sequence (P14635 whole entry partner): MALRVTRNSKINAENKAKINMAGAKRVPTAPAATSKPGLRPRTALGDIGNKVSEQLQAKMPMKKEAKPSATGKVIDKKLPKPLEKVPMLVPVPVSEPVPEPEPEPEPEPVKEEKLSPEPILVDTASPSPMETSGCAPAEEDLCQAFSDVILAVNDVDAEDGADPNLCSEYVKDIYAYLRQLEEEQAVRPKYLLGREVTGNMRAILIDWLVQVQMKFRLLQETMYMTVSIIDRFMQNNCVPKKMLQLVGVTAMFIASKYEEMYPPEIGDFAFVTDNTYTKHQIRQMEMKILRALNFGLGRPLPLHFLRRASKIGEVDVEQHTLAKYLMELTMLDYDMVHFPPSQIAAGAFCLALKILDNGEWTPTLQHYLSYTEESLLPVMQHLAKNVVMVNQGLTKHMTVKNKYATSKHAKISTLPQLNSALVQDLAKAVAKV
Procedure: (§1) Kinase activity was assessed using the kinase assay kits from BPS Bioscience for CDK1, CDK9 and CDK12 with Kinase Glo MAX in duplicates. Compounds were tested at a single concentration of 1 μM for CDK1 and CDK9 activity, and in a dilution ranging from 0.64 nM to 50 μM for CDK12 activity. Chemiluminescence was read using the Neo Synergy BioTek plate reader.

[4] = molecular target: T2, CDK9/CyclinT (Homo sapiens, UniProt P50750); assay: CDK9/CyclinT in vitro kinase activity, single concentration 1 μM; type: biochemical; details: single concentration 1 μM
T2 construct: purchased BPS Bioscience 79628
T2 sequence (P50750 whole entry): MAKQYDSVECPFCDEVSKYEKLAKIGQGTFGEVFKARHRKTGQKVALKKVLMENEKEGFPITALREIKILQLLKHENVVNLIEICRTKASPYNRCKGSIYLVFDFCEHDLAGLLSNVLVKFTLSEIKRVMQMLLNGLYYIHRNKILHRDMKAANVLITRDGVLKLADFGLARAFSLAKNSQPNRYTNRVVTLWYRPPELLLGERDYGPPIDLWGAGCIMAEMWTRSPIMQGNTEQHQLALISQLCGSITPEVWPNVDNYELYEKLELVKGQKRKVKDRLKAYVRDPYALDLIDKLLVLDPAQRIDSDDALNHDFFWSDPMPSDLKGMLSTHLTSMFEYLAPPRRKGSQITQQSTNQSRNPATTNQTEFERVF
T2 sequence (O60563 whole entry partner): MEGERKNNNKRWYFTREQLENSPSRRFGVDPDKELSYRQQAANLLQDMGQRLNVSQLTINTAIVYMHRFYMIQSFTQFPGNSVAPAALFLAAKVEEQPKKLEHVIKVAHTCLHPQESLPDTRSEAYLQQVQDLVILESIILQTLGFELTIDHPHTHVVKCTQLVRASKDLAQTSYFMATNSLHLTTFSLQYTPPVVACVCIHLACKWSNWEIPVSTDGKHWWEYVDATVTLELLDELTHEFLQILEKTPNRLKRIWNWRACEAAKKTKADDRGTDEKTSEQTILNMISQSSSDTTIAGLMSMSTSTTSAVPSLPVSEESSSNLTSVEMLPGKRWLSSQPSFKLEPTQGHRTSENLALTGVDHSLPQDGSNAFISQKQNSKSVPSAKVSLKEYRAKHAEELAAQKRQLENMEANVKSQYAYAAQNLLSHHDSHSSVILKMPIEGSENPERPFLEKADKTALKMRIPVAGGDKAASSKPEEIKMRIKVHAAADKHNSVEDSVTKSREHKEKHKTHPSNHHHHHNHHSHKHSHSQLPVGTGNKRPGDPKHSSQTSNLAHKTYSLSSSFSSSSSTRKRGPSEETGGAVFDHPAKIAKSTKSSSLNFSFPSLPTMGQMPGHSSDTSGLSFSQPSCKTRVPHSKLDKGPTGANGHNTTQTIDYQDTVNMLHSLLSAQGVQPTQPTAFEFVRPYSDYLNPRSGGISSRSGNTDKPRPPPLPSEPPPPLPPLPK
Procedure: as §1

[5] = system: OCI-AML5 cells expressing shRNAs targeting CDK1, 2, 4, 7, 9, cyclin K; assay: Dose response in OCI-AML5 expressing shRNAs targeting CDK1, 2, 4, 7, 9, cyclin K or control; type: cell-based, H. sapiens; details: for Class: class from shRNA IC50 profile and cyclin K-eGFP degradation; for class based on cellular selectivity: IC50 in shRNA OCI-AML5 cells and cyclin KeGFP degradation
[6] = system: OCI-AML5 cells expressing shRNA targeting CUL4A or CUL4B; assay: Dose response in OCI-AML5 expressing shRNAs targeting CUL4A, CUL4B or control; type: cell-based, H. sapiens; details: ratio of IC50 in shCUL4A vs shCTRL OCI-AML5 cells
[7] = Homo sapiens, OCI-AML-5, OCI-AML5 cells
[8] = Homo sapiens, OCI-AML-5, OCI-AML5 expressing shRNA CCNK (cyclin K), read-out: IC50 shRNA CCNK
[9] = Homo sapiens, OCI-AML-5, OCI-AML5 expressing shRNA CDK1, read-out: IC50 shRNA CDK1
[10] = Homo sapiens, OCI-AML-5, OCI-AML5 expressing shRNA CDK2, read-out: IC50 shRNA CDK2
[11] = Homo sapiens, OCI-AML-5, OCI-AML5 expressing shRNA CDK4, read-out: IC50 shRNA CDK4
[12] = Homo sapiens, OCI-AML-5, OCI-AML5 expressing shRNA CDK7, read-out: IC50 shRNA CDK7
[13] = Homo sapiens, OCI-AML-5, OCI-AML5 expressing shRNA CDK9, read-out: IC50 shRNA CDK9
[14] = OCI-AML5 expressing shRNA CCNK (cyclin K), read-out: IC50 shRNA CCNK
[15] = OCI-AML5 expressing shRNA CDK1, read-out: IC50 shRNA CDK1
[16] = OCI-AML5 expressing shRNA CDK2, read-out: IC50 shRNA CDK2
[17] = OCI-AML5 expressing shRNA CDK4, read-out: IC50 shRNA CDK4
[18] = OCI-AML5 expressing shRNA CDK7, read-out: IC50 shRNA CDK7
[19] = OCI-AML5 expressing shRNA CDK9, read-out: IC50 shRNA CDK9

SMILES	IC50 [1, 7]	% degradation cyclin K-eGFP [2]	inhibition at 1 µM [3]	inhibition at 1 µM [4]	IC50 [5, 8]	IC50 [5, 9]	IC50 [5, 10]	IC50 [5, 11]	IC50 [5, 12]	IC50 [5, 13]	Class [5]	Ratio shCUL4A/shCTRL [6]	class based on cellular selectivity [5]	also measured
Cc1ccc(CC(=O)Nc2ncc(SCc3cccnc3)s2)cc1 [UOM-005202]	3400 nM	28%	65%	50%	2940 nM	929 nM	2830 nM	3720 nM	2860 nM	1800 nM	2	0.7	–	–
CC(C)(C)OC(=O)N1CCC(CC(=O)Nc2ncc(SCc3cccnc3)s2)C1 (stereo not drawn) [UOM-005226]	> 10000 nM	2%	46%	39%	> 10000 nM	6250 nM	> 10000 nM	> 10000 nM	> 10000 nM	> 10000 nM	2	1.24	–	–
O=C(Cc1cccnc1)Nc1ncc(SCc2cccnc2)s1 [UOM-005249]	2450 nM	10%	100%	100%	1850 nM	908 nM	2320 nM	2280 nM	2240 nM	1180 nM	2	0.98	Class II	–
O=C(Cc1ccc2ccccc2c1)Nc1ncc(SCc2cccnc2)s1 [UOM-005428]	361 nM	80%	70%	67%	135 nM	502 nM	544 nM	509 nM	578 nM	369 nM	1	2.81	Class I (effective cyclin K MGDs (decreased IC50 in cyclin K depleted cells only, and >65% degradation of cyclin KeGFP))	–
O=C(Cc1ccc(-c2ccccc2)cc1)Nc1ncc(SCc2cccnc2)s1 [UOM-005429]	422 nM	80%	25%	67%	148 nM	493 nM	457 nM	408 nM	525 nM	367 nM	1	2.25	–	–
C=C(C(=O)Nc1ncc(SCc2cccnc2)s1)c1ccc(CC(C)C)cc1 [UOM-005430]	> 10000 nM	60%	83%	82%	7680 nM	7310 nM	> 10000 nM	> 10000 nM	> 10000 nM	7720 nM	mixed 1-2	0.36	–	–
COc1ccc2cc([C@H](C)C(=O)Nc3ncc(SCc4cccnc4)s3)ccc2c1 [UOM-005431]	–	78%	–	–	–	–	–	–	–	–	1	2.43	–	IC50 ([1]; OCI-AML5 cells): 895 nM; % CDK1 inhibition [3]: 53%; % CDK9 inhibition [4]: 78%; IC50 [5, 14]: 396 nM; IC50 [5, 15]: 1080 nM; IC50 [5, 16]: 1160 nM; IC50 [5, 17]: 979 nM; IC50 [5, 18]: 1080 nM; IC50 [5, 19]: 876 nM
O=C(Cc1ccc(CNC(=O)OCC2c3ccccc3-c3ccccc32)cc1)Nc1ncc(SCc2cccnc2)s1 [UOM-005432]	–	5%	–	–	–	–	–	–	–	–	2	1.02	Class II	IC50 ([1]; OCI-AML5 cells): 840 nM; % CDK1 inhibition [3]: 100%; % CDK9 inhibition [4]: 62%; IC50 [5, 14]: 753 nM; IC50 [5, 15]: 293 nM; IC50 [5, 16]: 886 nM; IC50 [5, 17]: 895 nM; IC50 [5, 18]: 807 nM; IC50 [5, 19]: 391 nM
CC(=O)Nc1ccc(CC(=O)Nc2ncc(SCc3cccnc3)s2)cc1 [UOM-005473]	210 nM	67%	70%	90%	78.6 nM	154 nM	197 nM	227 nM	221 nM	152 nM	mixed 1-2	2.59	–	–
O=C(Cc1ccc(NC(=O)c2cccnc2)cc1)Nc1ncc(SCc2cccnc2)s1 [UOM-005475]	750 nM	0%	100%	63%	574 nM	314 nM	730 nM	709 nM	658 nM	299 nM	2	1.05	–	–
O=C(Cc1ccc(NC(=O)c2ccncc2)cc1)Nc1ncc(SCc2cccnc2)s1 [UOM-005476]	660 nM	1%	87%	66%	576 nM	350 nM	574 nM	626 nM	646 nM	270 nM	2	0.87	Class II	–
O=C(Cc1coc2cc3c(cc12)CCC3)Nc1ncc(SCc2cccnc2)s1 [UOM-005479]	1950 nM	76%	37%	100%	888 nM	2240 nM	2420 nM	1920 nM	2270 nM	1690 nM	1	1.94	Class I (effective cyclin K MGDs (decreased IC50 in cyclin K depleted cells only, and >65% degradation of cyclin KeGFP))	–
O=C(Cc1ccc(-c2ccncc2)cc1)Nc1ncc(SCc2cccnc2)s1 [UOM-005550]	1070 nM	35%	35%	64%	481 nM	566 nM	912 nM	897 nM	916 nM	554 nM	mixed 1-2	0.87	–	–
CN(C)c1ccc(CC(=O)Nc2ncc(C(C)(C)C)s2)cc1 [UOM-005605]	–	76%	–	–	–	–	–	–	–	–	1	4.63	Class I (effective cyclin K MGDs (decreased IC50 in cyclin K depleted cells only, and >65% degradation of cyclin KeGFP))	IC50 ([1]; OCI-AML5 cells): 1040 nM; % CDK1 inhibition [3]: 1%; % CDK9 inhibition [4]: 5%; IC50 [5, 14]: 341 nM; IC50 [5, 15]: 1140 nM; IC50 [5, 16]: 1140 nM; IC50 [5, 17]: 996 nM; IC50 [5, 18]: 1080 nM; IC50 [5, 19]: 968 nM
O=C(Cc1ccc(N2CCOCC2)cc1)Nc1ncc(SCc2cccnc2)s1 [UOM-005606]	1330 nM	45%	81%	65%	785 nM	700 nM	1440 nM	1840 nM	1470 nM	794 nM	mixed 1-2	1.07	–	–
